Here are results for 22 compounds from patent US10227357B2, “Compounds and methods for kinase modulation, and indications therefor” (Plexxikon Inc., priority 2012, dated 2019).

One assay concerns the target T1, c-kit kinase (Homo sapiens, UniProt P10721).
T1 construct: The c-kit (or kinase domain thereof) is an active kinase in AlphaScreen; poly-Histidine tag (in-house protein only) (cleaved yes); host or cells: E. coli BL21(DE3)RIL, co-expressed with PTP1B
Nature of the assay: c-Kit biochemical assay, AlphaScreen, 10 μM ATP. To be noted: c-kit biochemical inhibitory activity; read-out: Biochemical activity (IC50 μM) Kit. The method in brief:
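His-tagged c-Kit expressed in E. coli with co-expressed PTP1B (dephosphorylated), tag removed; 0.1 ng per reaction with biotinylated-peptide substrate in 50 mM HEPES pH 7.2, 5 mM MgCl2, 5 mM MnCl2, 5% DMSO, 10 μM ATP, 1 h at room temperature. Phosphorylation detected by AlphaScreen (streptavidin donor, PY20 acceptor beads); IC50 from 8-point 1:3 dilution series.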
(In general: In Alpha technology, singlet oxygen from a donor bead excites a nearby acceptor bead.)

The target of the next assay is T2, c-kit mutant D816V (Homo sapiens, UniProt P10721, D816V/DEL694-753).
T2 construct: residues 551-934, kinase insertion domain residues 694-753 deleted; 6x-histidine (N); made in house; host or cells: E. coli Arctic Express (DE3) RIL (Stratagene)
T2 sequence (P10721 with tags, fused parts or gaps DEL694-753/D816V): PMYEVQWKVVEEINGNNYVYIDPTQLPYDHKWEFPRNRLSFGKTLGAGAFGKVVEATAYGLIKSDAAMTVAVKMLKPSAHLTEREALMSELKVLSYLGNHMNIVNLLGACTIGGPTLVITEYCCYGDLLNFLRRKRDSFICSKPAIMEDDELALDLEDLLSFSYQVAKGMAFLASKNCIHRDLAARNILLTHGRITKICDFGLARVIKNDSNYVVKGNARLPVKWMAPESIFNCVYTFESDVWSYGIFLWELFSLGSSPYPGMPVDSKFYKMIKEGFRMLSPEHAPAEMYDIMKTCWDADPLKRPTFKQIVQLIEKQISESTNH
Nature of the assay: c-Kit mutant D816V biochemical assay, AlphaScreen. Particulars: c-kit D816V biochemical inhibitory activity; read-out: Biochemical activity (IC50 μM) Kit D816V. Summed up:
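Eight-point, threefold compound series incubated 30 min at room temperature with E. coli-produced D816V kinase, 10 μM ATP, Mg2+/Mn2+ HEPES buffer pH 7.2 and 5% DMSO. After EDTA stop, streptavidin and anti-phosphotyrosine (PY20) AlphaScreen beads gave the read-out, and IC50 was fitted from the concentration–signal curve.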

A word on the IC50: it is the concentration needed to halve the response being measured.

T1 sequence (P10721 26-976): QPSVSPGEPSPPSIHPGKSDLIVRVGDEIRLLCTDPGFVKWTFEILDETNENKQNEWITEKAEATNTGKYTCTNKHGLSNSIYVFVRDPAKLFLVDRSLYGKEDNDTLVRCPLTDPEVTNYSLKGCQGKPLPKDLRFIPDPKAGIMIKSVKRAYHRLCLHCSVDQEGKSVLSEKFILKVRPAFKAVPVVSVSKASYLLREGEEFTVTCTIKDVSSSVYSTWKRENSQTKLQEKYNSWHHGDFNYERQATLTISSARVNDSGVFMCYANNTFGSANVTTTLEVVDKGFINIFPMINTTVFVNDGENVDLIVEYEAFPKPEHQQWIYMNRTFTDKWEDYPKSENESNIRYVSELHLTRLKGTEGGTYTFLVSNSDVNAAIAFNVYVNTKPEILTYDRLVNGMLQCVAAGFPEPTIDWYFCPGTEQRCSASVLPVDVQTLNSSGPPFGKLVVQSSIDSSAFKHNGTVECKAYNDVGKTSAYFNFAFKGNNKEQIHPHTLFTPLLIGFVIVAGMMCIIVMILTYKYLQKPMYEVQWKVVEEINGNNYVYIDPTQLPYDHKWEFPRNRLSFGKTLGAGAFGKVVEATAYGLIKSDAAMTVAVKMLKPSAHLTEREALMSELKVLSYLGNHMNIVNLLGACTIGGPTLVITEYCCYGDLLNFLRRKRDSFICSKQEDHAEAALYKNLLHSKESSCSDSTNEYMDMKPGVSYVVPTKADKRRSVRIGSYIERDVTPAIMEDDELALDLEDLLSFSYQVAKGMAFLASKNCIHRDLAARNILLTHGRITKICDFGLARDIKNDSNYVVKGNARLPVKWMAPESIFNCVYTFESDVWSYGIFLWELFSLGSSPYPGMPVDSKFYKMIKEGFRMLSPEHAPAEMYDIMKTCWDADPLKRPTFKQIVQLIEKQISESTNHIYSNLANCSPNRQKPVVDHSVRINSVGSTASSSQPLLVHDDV

On to `Cc1nn(C)cc1-c1cc2ncnc(C3=CCN(C(=O)NCc4ccc(F)cc4)CC3)c2s1` [P-0613, 4-[6-(1,3-dimethylpyrazol-4-yl)thieno[3,2-d]pyrimidin-4-yl]-N-[(4-fluorophenyl)methyl]-3,6-dihydro-2H-pyridine-1-carboxamide], for which the IC50 on c-kit kinase was 1 to 10 µM; on c-kit mutant D816V, 0.0001 to 1 µM.
Taken in the same sequence, the figures for `Cc1ccc(S(=O)(=O)Nc2ccc(-c3ncnc4cc(C5=CCN(C(=O)OC(C)(C)C)CC5)sc34)cc2)cc1` [P-0614, tert-butyl 4-[4-[4-(p-tolylsulfonylamino)phenyl]thieno[3,2-d]pyrimidin-6-yl]-3,6-dihydro-2H-pyridine-1-carboxylate] were 1 to 10 µM and 0.0001 to 1 µM.
For `O=C(NCc1ccc(F)cc1)N1CCN(c2ncnc3cc(C4=CCNCC4)sc23)CC1` [P-0615, N-[(4-fluorophenyl)methyl]-4-[6-(1,2,3,6-tetrahydropyridin-4-yl)thieno[3,2-d]pyrimidin-4-yl]piperazine-1-carboxamide] the same measures were 1 to 10 µM and 0.0001 to 1 µM.
For the compound `CC(C)(C)OC(=O)N1CC=C(c2cc3ncnc(N4CCN(C(=O)NCc5ccc(F)cc5)CC4)c3s2)CC1` [P-0616, tert-butyl 4-[4-[4-[(4-fluorophenyl)methylcarbamoyl]piperazin-1-yl]thieno[3,2-d]pyrimidin-6-yl]-3,6-dihydro-2H-pyridine-1-carboxylate], the figures for the IC50 at c-kit kinase and on c-kit mutant D816V were 1 to 10 µM and 0.0001 to 1 µM, respectively.
Taken in the same sequence, the figures for `Cn1cc(-c2cc3ncnc(C4=CC(C)(C)NC(C)(C)C4)c3s2)cn1` [P-0617, 6-(1-methylpyrazol-4-yl)-4-(2,2,6,6-tetramethyl-1,3-dihydropyridin-4-yl)thieno[3,2-d]pyrimidine] were 10 to 200 µM and 10 to 200 µM.
Taken in the same sequence, the figures for `Cc1nn(C)c(C)c1-c1cc2ncnc(N3CCN(C(=O)NCc4ccc(F)cc4)CC3)c2s1` [P-0618, N-[(4-fluorophenyl)methyl]-4-[6-(1,3,5-trimethylpyrazol-4-yl)thieno[3,2-d]pyrimidin-4-yl]piperazine-1-carboxamide] were 1 to 10 µM and 1 to 10 µM.
For `Cc1nn(C)cc1-c1cc2ncnc(N3CCN(C(=O)NCc4ccc(F)cc4)CC3)c2s1` [P-0619, 4-[6-(1,3-dimethylpyrazol-4-yl)thieno[3,2-d]pyrimidin-4-yl]-N-[(4-fluorophenyl)methyl]piperazine-1-carboxamide] the same measures were 1 to 10 µM and 0.0001 to 1 µM.
On to `Cc1c(-c2cc3ncnc(N4CCN(C(=O)NCc5ccc(F)cc5)CC4)c3s2)cnn1C` [P-0620, 4-[6-(1,5-dimethylpyrazol-4-yl)thieno[3,2-d]pyrimidin-4-yl]-N-[(4-fluorophenyl)methyl]piperazine-1-carboxamide], for which the IC50 at c-kit kinase was in the range of 1 to 10 µM; on c-kit mutant D816V it was 0.0001 to 1 µM.
In the case of `Cn1cc(-c2cc3ncnc(-c4ccc(N)nc4)c3s2)cn1` [P-0621, 5-[6-(1-methylpyrazol-4-yl)thieno[3,2-d]pyrimidin-4-yl]pyridin-2-amine], the IC50 at c-kit kinase and at c-kit mutant D816V was 1 to 10 µM throughout.
Regarding `Cc1cc2ncnc(-c3ccc(NS(C)(=O)=O)cc3)c2s1` [P-0622, N-[4-(6-methylthieno[3,2-d]pyrimidin-4-yl)phenyl]methanesulfonamide], the IC50 at c-kit kinase is 10 to 200 µM; at c-kit mutant D816V it was 1 to 10 µM.
Taken in the same sequence, the figures for `Cc1ccc(S(=O)(=O)Nc2ccc(-c3ncnc4cc(C)sc34)cc2)cc1` [P-0623, 4-methyl-N-[4-(6-methylthieno[3,2-d]pyrimidin-4-yl)phenyl]benzenesulfonamide] were 1 to 10 µM and 0.0001 to 1 µM.
`O=C(NCc1ccc(F)cc1)N1CCN(c2ncnc3cc(-c4cnn(CCN5CCOCC5)c4)sc23)CC1` [P-0624, N-[(4-fluorophenyl)methyl]-4-[6-[1-(2-morpholinoethyl)pyrazol-4-yl]thieno[3,2-d]pyrimidin-4-yl]piperazine-1-carboxamide]: the results for the IC50 on c-kit kinase and on c-kit mutant D816V were 1 to 10 µM and 0.0001 to 1 µM, respectively.
For `Cn1cc(-c2cc3ncnc(N4CCN(C(=O)NCc5ccccc5)CC4)c3s2)cn1` [P-0626, N-benzyl-4-[6-(1-methylpyrazol-4-yl)thieno[3,2-d]pyrimidin-4-yl]piperazine-1-carboxamide] the same measures were 10 to 200 µM and 1 to 10 µM.
For `O=C(NCc1ccc(F)cc1)N1CCN(c2ncnc3ccsc23)CC1` [P-0638, N-[(4-fluorophenyl)methyl]-4-thieno[3,2-d]pyrimidin-4-yl-piperazine-1-carboxamide] the same measures were 10 to 200 µM and 10 to 200 µM.
For `Cc1cc2c(N3CCN(C(=O)N[C@@H](C)c4cccc(Cl)c4)C(C)(C)C3)ncnc2[nH]1` [P-0641, N-[(1S)-1-(3-chlorophenyl)ethyl]-2,2-dimethyl-4-(6-methyl-7H-pyrrolo[2,3-d]pyrimidin-4-yl)piperazine-1-carboxamide] the same measures were 10 to 200 µM and 0.0001 to 1 µM.
On to `C[C@H](NC(=O)N1CCN(c2ncnc3[nH]c(-c4ccc(F)cc4)cc23)CC1(C)C)c1ccc(F)cc1` [P-0642, N-[(1S)-1-(4-fluorophenyl)ethyl]-4-[6-(4-fluorophenyl)-7H-pyrrolo[2,3-d]pyrimidin-4-yl]-2,2-dimethyl-piperazine-1-carboxamide], for which the IC50 at c-kit kinase was 1 to 10 µM; on c-kit mutant D816V, 0.0001 to 1 µM.
Taken in the same sequence, the figures for `COc1cc(-c2cc3c(N4CCN(C(=O)N[C@@H](C)c5ccc(F)cc5)C(C)(C)C4)ncnc3[nH]2)ccn1` [P-0643] were 1 to 10 µM and 0.0001 to 1 µM.
For `Cc1cc2c(N3CCN(C(=O)N[C@@H](C)c4ccc(F)cc4)C(C)(C)C3)ncnc2[nH]1` [P-0644, N-[(1S)-1-(4-fluorophenyl)ethyl]-2,2-dimethyl-4-(6-methyl-7H-pyrrolo[2,3-d]pyrimidin-4-yl)piperazine-1-carboxamide] the same measures were 10 to 200 µM and 1 to 10 µM.
For `Cc1cc2c(N3CCN(C(=O)N[C@@H](C)c4cccc(OC(F)F)c4)C(C)(C)C3)ncnc2[nH]1` [P-0645, N-[(1S)-1-[3-(difluoromethoxy)phenyl]ethyl]-2,2-dimethyl-4-(6-methyl-7H-pyrrolo[2,3-d]pyrimidin-4-yl)piperazine-1-carboxamide] the same measures were 10 to 200 µM and 1 to 10 µM.
As to `Cc1cc2c(N3CCN(C(=O)N[C@@H](C)c4ccc(F)cc4)[C@H](C)C3)ncnc2[nH]1` [P-0646, (2R)-N-[(1S)-1-(4-fluorophenyl)ethyl]-2-methyl-4-(6-methyl-7H-pyrrolo[2,3-d]pyrimidin-4-yl)piperazine-1-carboxamide], the figures for the 50% inhibitory concentration (IC50) on c-kit kinase and at c-kit mutant D816V were 10 to 200 µM and 1 to 10 µM, respectively.
Taken in the same sequence, the figures for `Cc1cc2c(N3CCN(C(=O)N[C@@H](C)c4cccc(Cl)c4)[C@H](C)C3)ncnc2[nH]1` [P-0647, (2R)-N-[(1S)-1-(3-chlorophenyl)ethyl]-2-methyl-4-(6-methyl-7H-pyrrolo[2,3-d]pyrimidin-4-yl)piperazine-1-carboxamide] were 1 to 10 µM and 0.0001 to 1 µM.
Turning to `Cc1cc2c(N3CCN(C(=O)N[C@@H](C)c4cccc(OC(F)F)c4)[C@H](C)C3)ncnc2[nH]1` [P-0648, (2R)-N-[(1S)-1-[3-(difluoromethoxy)phenyl]ethyl]-2-methyl-4-(6-methyl-7H-pyrrolo[2,3-d]pyrimidin-4-yl)piperazine-1-carboxamide], the IC50 at c-kit kinase lay in the range of 10 to 200 µM; on c-kit mutant D816V, 0.0001 to 1 µM.
